Measured values from PubChem BioAssay (NCI).
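48-hour exposure; five concentrations; linearly interpolated endpoints. At the GI50, growth is halved. TGI marks complete inhibition of growth.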

What was measured:
Test in all cases: NCI tumour cell line growth inhibition, 48 h
786-0 renal = tested on: 786-0 renal
A498 renal = tested on: A498 renal
A549 NSCLC = tested on: A549 NSCLC
ACHN renal = tested on: ACHN renal
BT-549 breast = tested on: BT-549 breast
CAKI-1 renal = tested on: CAKI-1 renal
CCRF-CEM leukemia = tested on: CCRF-CEM leukemia
COLO 205 colon = tested on: COLO 205 colon
DU-145 prostate = tested on: DU-145 prostate
EKVX NSCLC = tested on: EKVX NSCLC
HCC-2998 colon = tested on: HCC-2998 colon
HCT-116 colon = tested on: HCT-116 colon
HCT-15 colon = tested on: HCT-15 colon
HL-60(TB) leukemia = tested on: HL-60(TB) leukemia
HOP-62 NSCLC = tested on: HOP-62 NSCLC
HOP-92 NSCLC = tested on: HOP-92 NSCLC
HS 578T breast = tested on: HS 578T breast
HT29 colon = tested on: HT29 colon
IGROV1 ovarian = tested on: IGROV1 ovarian
K-562 leukemia = tested on: K-562 leukemia
KM12 colon = tested on: KM12 colon
LOX IMVI melanoma = tested on: LOX IMVI melanoma
M14 melanoma = tested on: M14 melanoma
MALME-3M melanoma = tested on: MALME-3M melanoma
MCF7 breast = tested on: MCF7 breast
MDA-MB-231 breast = tested on: MDA-MB-231 breast
MDA-MB-468 breast = tested on: MDA-MB-468 breast
MOLT-4 leukemia = tested on: MOLT-4 leukemia
NCI-H226 lung = tested on: NCI-H226 lung
NCI-H23 lung = tested on: NCI-H23 lung
NCI-H460 lung = tested on: NCI-H460 lung
NCI-H522 lung = tested on: NCI-H522 lung
NCI/ADR-RES ovarian = tested on: NCI/ADR-RES ovarian
OVCAR-3 ovarian = tested on: OVCAR-3 ovarian
OVCAR-4 ovarian = tested on: OVCAR-4 ovarian
OVCAR-5 ovarian = tested on: OVCAR-5 ovarian
OVCAR-8 ovarian = tested on: OVCAR-8 ovarian
PC-3 prostate = tested on: PC-3 prostate
RPMI-8226 leukemia = tested on: RPMI-8226 leukemia
RXF 393 renal = tested on: RXF 393 renal
SF-268 CNS = tested on: SF-268 CNS
SF-295 CNS = tested on: SF-295 CNS
SF-539 CNS = tested on: SF-539 CNS
SK-MEL-2 melanoma = tested on: SK-MEL-2 melanoma
SK-MEL-28 melanoma = tested on: SK-MEL-28 melanoma
SK-MEL-5 melanoma = tested on: SK-MEL-5 melanoma
SK-OV-3 ovarian = tested on: SK-OV-3 ovarian
SN12C renal = tested on: SN12C renal
SNB-19 CNS = tested on: SNB-19 CNS
SNB-75 CNS = tested on: SNB-75 CNS
SR leukemia = tested on: SR leukemia
SW-620 colon = tested on: SW-620 colon
T-47D breast = tested on: T-47D breast
TK-10 renal = tested on: TK-10 renal
U251 CNS = tested on: U251 CNS
UACC-257 melanoma = tested on: UACC-257 melanoma
UACC-62 melanoma = tested on: UACC-62 melanoma
UO-31 renal = tested on: UO-31 renal

## COc1ccc(CCC2NCCc3c(Br)c4c(c(OC)c32)OCO4)cc1 (stereo unspecified)
786-0 renal
  GI50: 9.75 µM
  TGI: > 55.8 µM
A498 renal
  GI50: 29 µM
  TGI: > 55.8 µM
A549 NSCLC
  GI50: 4.01 µM
  TGI: > 55.8 µM
ACHN renal
  GI50: 8.23 µM
  TGI: > 55.8 µM
BT-549 breast
  GI50: 7.45 µM
  TGI: 25.5 µM
CAKI-1 renal
  GI50: 3.08 µM
  TGI: > 55.8 µM
CCRF-CEM leukemia
  GI50: 6.76 µM
  TGI: 37.3 µM
COLO 205 colon
  GI50: 2.84 µM
  TGI: 11.8 µM
DU-145 prostate
  GI50: 15.9 µM
  TGI: > 55.8 µM
EKVX NSCLC
  GI50: 11.5 µM
  TGI: > 55.8 µM
HCC-2998 colon
  GI50: 6.82 µM
  TGI: 15.5 µM
HCT-116 colon
  GI50: 1.84 µM
  TGI: > 55.8 µM
HCT-15 colon
  GI50: 3.53 µM
  TGI: > 55.8 µM
HL-60(TB) leukemia
  GI50: 2.44 µM
  TGI: 17.7 µM
HOP-62 NSCLC
  GI50: 2.68 µM
  TGI: > 55.8 µM
HOP-92 NSCLC
  GI50: 2.69 µM
  TGI: 18.2 µM
HS 578T breast
  GI50: 6.63 µM
  TGI: 28.3 µM
HT29 colon
  GI50: 1.77 µM
  TGI: 8.33 µM
IGROV1 ovarian
  GI50: 3.92 µM
  TGI: 44.6 µM
K-562 leukemia
  GI50: 1.84 µM
  TGI: > 55.8 µM
KM12 colon
  GI50: 2.82 µM
  TGI: > 55.8 µM
LOX IMVI melanoma
  GI50: 6.31 µM
  TGI: 14.5 µM
M14 melanoma
  GI50: 2.05 µM
  TGI: > 55.8 µM
MALME-3M melanoma
  GI50: 4.98 µM
  TGI: 13.5 µM
MCF7 breast
  GI50: 7.13 µM
  TGI: 26.6 µM
MDA-MB-231 breast
  GI50: 2.08 µM
  TGI: 15.5 µM
MDA-MB-468 breast
  GI50: 4.45 µM
  TGI: 15.9 µM
MOLT-4 leukemia
  GI50: 4.46 µM
  TGI: > 55.8 µM
NCI-H226 lung
  GI50: 6.71 µM
  TGI: > 55.8 µM
NCI-H23 lung
  GI50: 6.79 µM
  TGI: 38.1 µM
NCI-H460 lung
  GI50: 2.77 µM
  TGI: 21.7 µM
NCI-H522 lung
  GI50: 1.72 µM
  TGI: 10.1 µM
NCI/ADR-RES ovarian
  GI50: 6.99 µM
  TGI: 28.4 µM
OVCAR-3 ovarian
  GI50: 3.37 µM
  TGI: 29.8 µM
OVCAR-4 ovarian
  GI50: 12.6 µM
  TGI: > 55.8 µM
OVCAR-5 ovarian
  GI50: 3.28 µM
  TGI: 36.8 µM
OVCAR-8 ovarian
  GI50: 11.1 µM
  TGI: > 55.8 µM
PC-3 prostate
  GI50: 6.16 µM
  TGI: > 55.8 µM
RPMI-8226 leukemia
  GI50: 2.23 µM
  TGI: 15.9 µM
RXF 393 renal
  GI50: 7.57 µM
  TGI: 39.4 µM
SF-268 CNS
  GI50: 12.5 µM
  TGI: > 55.8 µM
SF-295 CNS
  GI50: 2.36 µM
  TGI: 41.6 µM
SF-539 CNS
  GI50: 6 µM
  TGI: 14.3 µM
SK-MEL-2 melanoma
  GI50: 2.99 µM
  TGI: 16.5 µM
SK-MEL-28 melanoma
  GI50: 2.5 µM
  TGI: 12.6 µM
SK-MEL-5 melanoma
  GI50: 3.64 µM
  TGI: 11.9 µM
SK-OV-3 ovarian
  GI50: 10.5 µM
  TGI: > 55.8 µM
SN12C renal
  GI50: 5.1 µM
  TGI: 42.7 µM
SNB-19 CNS
  GI50: 11.1 µM
  TGI: > 55.8 µM
SNB-75 CNS
  GI50: 7.93 µM
  TGI: 35.3 µM
SR leukemia
  GI50: 2.33 µM
  TGI: 31.2 µM
SW-620 colon
  GI50: 1.76 µM
  TGI: 9.77 µM
T-47D breast
  GI50: 4.78 µM
  TGI: 27.3 µM
TK-10 renal
  GI50: 11.8 µM
  TGI: > 55.8 µM
U251 CNS
  GI50: 10.7 µM
  TGI: > 55.8 µM
UACC-257 melanoma
  GI50: 9.2 µM
  TGI: > 55.8 µM
UACC-62 melanoma
  GI50: 1.34 µM
  TGI: 3.98 µM
UO-31 renal
  GI50: 7.85 µM
  TGI: > 55.8 µM
